Earlier results as cited in patent publication US6232438A, “Angiotensin converting enzyme inhibitors” (Nong Shim Co., Ltd., priority 1996, dated 2001).

Molecular target: ACE (Homo sapiens, UniProt P12821)
Conditions: peptide from enzymatic hydrolysate of milk casein

ACE, sequence (P12821 30-1306, species assumed): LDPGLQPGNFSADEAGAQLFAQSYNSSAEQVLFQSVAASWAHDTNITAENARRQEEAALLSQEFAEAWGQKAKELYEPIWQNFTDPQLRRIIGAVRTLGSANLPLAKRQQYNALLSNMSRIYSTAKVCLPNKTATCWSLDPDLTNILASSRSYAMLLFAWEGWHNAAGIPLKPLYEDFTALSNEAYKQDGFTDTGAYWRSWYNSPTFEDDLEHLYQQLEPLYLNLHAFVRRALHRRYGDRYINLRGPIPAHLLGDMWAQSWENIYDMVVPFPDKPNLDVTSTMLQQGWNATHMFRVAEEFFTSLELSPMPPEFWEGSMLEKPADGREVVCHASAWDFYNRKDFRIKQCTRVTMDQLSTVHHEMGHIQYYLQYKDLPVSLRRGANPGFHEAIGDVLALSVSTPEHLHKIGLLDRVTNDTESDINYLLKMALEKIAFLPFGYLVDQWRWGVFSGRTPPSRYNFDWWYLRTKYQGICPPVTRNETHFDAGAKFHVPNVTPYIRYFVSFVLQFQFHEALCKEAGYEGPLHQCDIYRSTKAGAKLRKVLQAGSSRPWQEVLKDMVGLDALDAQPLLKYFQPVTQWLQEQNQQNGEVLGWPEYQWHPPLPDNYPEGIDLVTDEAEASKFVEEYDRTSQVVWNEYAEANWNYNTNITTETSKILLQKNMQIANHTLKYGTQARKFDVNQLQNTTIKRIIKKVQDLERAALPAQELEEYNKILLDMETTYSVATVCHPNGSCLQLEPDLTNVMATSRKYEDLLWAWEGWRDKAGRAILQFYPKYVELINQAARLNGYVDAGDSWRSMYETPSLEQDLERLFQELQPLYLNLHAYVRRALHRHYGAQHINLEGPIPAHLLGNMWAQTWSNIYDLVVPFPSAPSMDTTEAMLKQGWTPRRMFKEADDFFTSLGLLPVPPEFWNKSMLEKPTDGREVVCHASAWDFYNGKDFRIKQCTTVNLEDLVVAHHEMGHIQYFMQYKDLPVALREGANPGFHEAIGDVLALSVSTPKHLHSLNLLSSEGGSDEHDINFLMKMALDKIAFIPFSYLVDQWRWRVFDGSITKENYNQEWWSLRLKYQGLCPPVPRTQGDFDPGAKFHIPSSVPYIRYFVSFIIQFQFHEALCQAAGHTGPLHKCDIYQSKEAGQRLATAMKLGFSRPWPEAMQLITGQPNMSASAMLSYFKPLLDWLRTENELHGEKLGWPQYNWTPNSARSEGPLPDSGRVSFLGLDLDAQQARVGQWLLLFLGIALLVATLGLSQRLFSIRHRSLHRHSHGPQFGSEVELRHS

IC50: 6 µM
Substance: phenylalanine-phenylalanine-valine-alanine-proline
